Results: patent US20250241913A1, “COMBINATION THERAPIES BASED ON PD-1 INHIBITORS AND SIK3 INHIBITORS” (iOmx Therapeutics AG, priority 2022, published 2025)

What was measured:
KLN205 tumor cells = assay: KLN205 lung squamous cell carcinoma model, subcutaneous, tumor growth; assay type: in vivo, DBA/2 mice; conditions: compared to control, E9 25 mg/kg twice daily oral, anti-murine-PD-1 mAb 10 mg/kg twice weekly i.p.
Experimental: FIG. 4: (A) Average tumor growth kinetics and overall survival monitored for the EMT6 tumor model after treatment start. […] Treatment regimes are indicated by indeces 1 to 4 in the figure and represent: (1) 10 ml/kg vehicle+10 mg/kg mIgG1e ctrl. (2) 10 ml/kg vehicle+10 mg/kg α-mu-PD-1 (3) 12.5 mg/kg compound E9+10 mg/kg mIgG1e ctrl. and (4) 12.5 mg/kg compound E9+10 mg/kg α-mu-PD-1 (B) Average tumor growth kinetics for the KLN205 tumor model upon initiation of therapy; Treatment regimes are indicated by indeces 1 to 4 in the figure and represent: (1) 10 ml/kg vehicle+10 mg/kg mIgG1e ctrl. (2) 10 ml/kg vehicle+10 mg/kg α-mu-PD-1 (3) 25 mg/kg compound E9+10 mg/kg mIgG1e ctrl. And (4) 25 mg/kg compound E9+10 mg/kg α-mu-PD-1.
EMT6 tumor cells were implanted into mammary fat pad in BALB/c mice and randomized at an average tumor volume of 65mm^3. KLN205 tumor cells were subcutaneously implanted in DBA/2 mice and randomized at an average tumor volume of 60 mm^3. Both animal models were treated twice daily by oral gavage with the indicated doses of compound E9 and twice weekly, intraperitoneal with 10 mg/kg anti-murine-PD-1 mAb (clone: RMP1-14) or corresponding controls.

MC38 tumor cells = assay: MC38 tumor model, subcutaneous, tumor growth, survival and flow cytometry of tumor infiltrating cells; assay type: in vivo, C57BI6/N mice
Experimental: FIG. 3: (A) Average tumor growth kinetics and overall survival monitored for the MC38 tumor model after treatment start. Treatment regimes are indicated by indeces 1 to 4 in the figure and represent: (1) 10 ml/kg vehicle+10 mg/kg mIgG1e ctrl. (2) 10 ml/kg vehicle+10 mg/kg α-muPD-1 (3) 25 mg/kg compound E9+10 mg/kg mIgG1e ctrl. and (4) 25 mg/kg compound E9+10 mg/kg α-mu-PD-1 (B) Tumor infiltrating cytotoxic T cells (CTL), CTL to regulatory T cell ratio, tumor associated M2-macrohages (M2-TAM) and M2-like TAM were analyzed by flow cytometry.
MC38 tumor cells were subcutaneously implanted in C57BI6/N mice, randomized at an average tumor volume of 100 mm^3 and tumor bearing mice were treated twice daily with 25 mg/kg compound E9 by oral gavage and twice weekly, intraperitoneal with 10 mg/kg anti-murine-PD-1 mAb (clone: RMP1-14) or corresponding controls.

[1] = monotherapy, 25 mg/kg E9 twice daily by oral gavage

Compound: Cc1nc(Nc2ncc(C(=O)Nc3c(CF)csc3Cl)s2)cc(N2CCN(C)CC2)n1 [E9, N-(2-chloro-4-(fluoromethyl)thiophen-3-yl)-2-((2-methyl-6-(4-methylpiperazin-1-yl)pyrimidin-4-yl)amino)thiazole-5-carboxamide]
- Growth inhibition (TGI) (KLN205 tumor cells): 22%
- CTL to Treg ratio (MC38 tumor cells; flow cytometry): promotion
- cytotoxic T lymphocyte (CTL) activity (MC38 tumor cells; flow cytometry): activating
- immunosuppressive myeloid cells in tumour microenvironment (MC38 tumor cells; flow cytometry): reducing
- regulatory T cells (Treg) in tumour microenvironment (MC38 tumor cells; flow cytometry): reducing
- anti-tumor efficacy (MC38 tumor cells; [1]): highly significant anti-tumor efficacy
- survival (MC38 tumor cells; [1]): prolonged survival
